Numbers after ± are expanded uncertainties.
Columns and labels:
[1] = Crystal; DTA
[2] = Molar enthalpy of transition or fusion; details: Crystal; DSC

C=CC(=O)Oc1cccc(CCCCCCCCCCCCCCC)c1 [3-pentadecylphenyl acrylate]
Normal melting temperature [1]: 31.50 ± 0.7 °C
Molar enthalpy of transition or fusion [2]: 13 ± 0.263 kcal/mol

Reference: the NIST ThermoML archive (doi:10.1016/j.fluid.2012.03.002)
